# Legend:
# SARS-CoV M^pro = SARS-CoV M^pro ref 27; cited from earlier work
# SARS-CoV-2 M^pro = SARS-CoV-2 M^pro (Severe acute respiratory syndrome coronavirus 2, UniProt P0DTD1); assay: SARS-CoV-2 M^pro enzyme inhibition assay (FRET substrate); format: biochemical; details: for IC50: 150 nM enzyme, 30 min preincubation, 25 µM substrate, mean ± SD
# SARS-CoV-2 = SARS-CoV-2 viral load reduction assay in VeroE6 cells; format: cell-based; details: 10 µM, MOI 0.1, 48 hpi, qRT-PCR of supernatant
# Experimental: Fig 3 In vitro antiviral activity of selected compounds. VeroE6 cells were infected with SARS-CoV-2 (multiplicity of infection [MOI] of 0.1) and treated with various concentrations of H102, PF-07321332, GC376, or vehicle control. Viral RNA load in the cell culture supernatant samples was quantified by qRT-PCR. All experiments were performed in triplicate, and the values are presented as mean ± SD. P-values were calculated using Student’s t-test to compare each compound candidate with vehicle control. *P < 0.05.
# Viral load reduction assay was performed for the evaluation of antiviral activity as we described previously ([34]). Briefly, SARS-CoV-2-infected VeroE6 cells were treated with different concentrations of compounds or dimethyl sulfoxide (DMSO) control. Then, cell culture supernatant samples were collected at 48 h post-inoculation (hpi) for qRT-PCR analysis of viral RNA load. Culture supernatant was lysed with buffer AVL and then extracted for total RNA with the QIAamp viral RNA mini kit (Qiagen). qRT-PCR was used for quantitation of SARS-CoV-2 viral load using the QuantiNova Probe RT-PCR kit (Qiagen) with a LightCycler 480 Real-Time PCR System (Roche). […]
SMILES,IC50 (SARS-CoV-2 M^pro) [µM],other results
COC(=O)[C@H](C[C@@H]1CCNC1=O)NC(=O)OC(C)(C)C [compound 3],–,IC50 (SARS-CoV M^pro): 0.3 µM
COc1ccc(C[C@H](NC(=O)[C@H](C)NC(=O)c2cnc(-c3ccc(C(C)=O)cc3)s2)C(=O)N[C@@H](C[C@@H]2CCNC2=O)C(=O)C(=O)Nc2cccc(C(C)=O)c2)cc1 [H96],9.4 ± 3,increase in M^pro inhibitory potency compared to compound 17 (SARS-CoV-2 M^pro; vs compound 17): > 10 fold
COC[C@H](NC(=O)OC(C)(C)C)C(=O)N[C@@H](Cc1ccc(OC)cc1)C(=O)N[C@@H](C[C@@H]1CCNC1=O)C(=O)C(=O)Nc1cccc(C(C)=O)c1 [H137],28.9 ± 3.8,–
CC(=O)c1cccc(NC(=O)C(=O)[C@H](C[C@@H]2CCNC2=O)NC(=O)[C@H](CC(C)C)NC(=O)[C@@H](NC(=O)OC(C)(C)C)C(C)(C)C)c1 [H101],3.8 ± 0.4,–
"CC(C)(C)[C@H](NC(=O)C(F)(F)F)C(=O)N1C[C@H]2[C@@H]([C@H]1C(=O)N[C@H](C#N)C[C@@H]1CCNC1=O)C2(C)C [PF-07321332, Nirmatrelvir]",–,reduction in viral RNA load (SARS-CoV-2): 3.48 log10
COc1ccc(C[C@H](NC(=O)[C@@H](NC(=O)OC(C)(C)C)C(C)C)C(=O)N[C@@H](C[C@@H]2CCNC2=O)C(=O)C(=O)Nc2cccc(C(C)=O)c2)cc1 [H98],8.7 ± 2.5,–
COc1ccc(C[C@H](NC(=O)[C@@H](NC(=O)OC(C)(C)C)C(C)(C)C)C(=O)N[C@@H](C[C@@H]2CCNC2=O)C(=O)C(=O)Nc2cccc(C(C)=O)c2)cc1 [H97],6.3 ± 2.7,–
CC(C)C[C@H](NC(=O)OCc1ccccc1)C(=O)N[C@@H](C[C@@H]1CCNC1=O)C(O)S(=O)(=O)[O-].[Na+] (some centres unmarked) [GC376],–,reduction in viral RNA load (SARS-CoV-2): 3.93 log10
COc1ccc(C[C@H](NC(=O)[C@H](CC(C)C)NC(=O)OC(C)(C)C)C(=O)N[C@@H](C[C@@H]2CCNC2=O)C(=O)C(=O)Nc2cccc(C(C)=O)c2)cc1 [H99],9.9 ± 4.7,–
COc1ccc(C[C@H](NC(=O)[C@H](C)NC(=O)OC(C)(C)C)C(=O)N[C@@H](C[C@@H]2CCNC2=O)C(=O)C(=O)Nc2cccc(C(C)=O)c2)cc1 [H94],24.8 ± 2.3,–

# — publication PMC12548382, “Discovery of a potent covalent inhibitor that unusually distorts the catalytic dyad of SARS-CoV-2 main protease” (Journal of Virology, 2025)
